Reference: patent publication US12618070B2, “Increasing Atoh1 life to drive sensorineural hair cell differentiation” (Massachusetts Eye and Ear Infirmary, priority 2014, dated 2026)
Entries after “also recorded” stand apart in the source; their conditions may differ. Peptide text beside a SMILES is read from it. * marks the point of attachment. Cbz = O=C(OCc1ccccc1)*

Key:
Format in all cases: cell-based
[1] = tested on: Atoh1; experiment: Atoh1 level in P1 organ of Corti explants treated with proteasome inhibitor; details: P1 mouse organ of Corti, MG132 10 uM, 3 hours, vs DMSO
Method: FIG. 10. Inhibition of proteasome activity stabilizes Atoh1 in the cochlea. The organ of Corti from a P1 mouse was treated with proteasome inhibitor, MG132 (10 uM) for 3 hours. Atoh1 levels were higher in the MG132-treated organ of Corti. DMSO served as control; β-actin is a loading control.
Cochlear tissues were dissected from 1-day postnatal CD-1 mice (Charles River Laboratories). Spiral ganglion, Reissner's membrane, and the hook region of the organ of Corti were removed to obtain a flat cochlear surface preparation (Parker et al., 2010). Explants were plated onto 4-well plates (Greiner Bio-One) coated with Matrigel (BD Biosciences) diluted 1:10 in DMEM supplemented with 10% fetal bovine serum overnight.
To test whether proteasomal activity regulated Atoh1 in the cochlea we treated P1 organ of Corti explants with proteasome inhibitor, MG132 (10 uM).

[2] = tested on: Atoh1; experiment: Polyubiquitylation of Atoh1: anti-FLAG immunoprecipitation, ubiquitin immunoblot; details: MG132 10 uM, 6 hours
Method: (§1) FIGS. 2A-E. Atoh1 is degraded by the ubiquitin-proteasome pathway. […] HEK cells were transfected with FLAG-Atoh1 plasmid (1 ug/ml) for 24 hours, and incubated with either DMSO or MG132 (10 uM) for 3 hours and immunoprecipitated using FLAG (Atoh1) or beta-actin (loading control) antibodies. (B) FLAG-HA-Atoh1 293T cells were treated with cycloheximide (100 ug/ml) and MG132 (10 uM) at the indicated times and immunoprecipitated with FLAG (Atoh1) or beta-actin (loading control) antibodies. Time of treatment is indicated. (C) Half-lives based on densitometry from 3 experiments are shown. The ratio of Atoh1 to β-actin was plotted after normalization. Error bars indicate SEM. (D) & (E). Atoh1 is polyubiquitylated and degraded by the ubiquitin-proteasome pathway. FLAG-HA-Atoh1 293T cells were treated with either DMSO or MG132 (10 uM) for 6 hours. Lysates were immunoprecipitated with anti-FLAG antibody and subjected to immunoblotting with a ubiquitin antibody. FLAG was used to assess immunoprecipitation. […]
We then assessed polyubiquitylation of Atoh1 in the presence of a proteasome inhibitor which would prevent degradation of the ubiquitinated protein. […] The cell lysates were immunoprecipitated with anti-FLAG antibody, and the pattern of ubiquitylation was assessed with an anti-ubiquitin antibody.

[3] = tested on: Atoh1; experiment: Atoh1 level after proteasome inhibition in HEK cells transfected with FLAG-Atoh1; details: MG132 10 uM, 3 hours, vs DMSO
Method: FIGS. 2A-E. Atoh1 is degraded by the ubiquitin-proteasome pathway. […] HEK cells were transfected with FLAG-Atoh1 plasmid (1 ug/ml) for 24 hours, and incubated with either DMSO or MG132 (10 uM) for 3 hours and immunoprecipitated using FLAG (Atoh1) or beta-actin (loading control) antibodies. (B) FLAG-HA-Atoh1 293T cells were treated with cycloheximide (100 ug/ml) and MG132 (10 uM) at the indicated times and immunoprecipitated with FLAG (Atoh1) or beta-actin (loading control) antibodies. Time of treatment is indicated. (C) Half-lives based on densitometry from 3 experiments are shown. The ratio of Atoh1 to β-actin was plotted after normalization. Error bars indicate SEM. (D) & (E). Atoh1 is polyubiquitylated and degraded by the ubiquitin-proteasome pathway. FLAG-HA-Atoh1 293T cells were treated with either DMSO or MG132 (10 uM) for 6 hours. Lysates were immunoprecipitated with anti-FLAG antibody and subjected to immunoblotting with a ubiquitin antibody. FLAG was used to assess immunoprecipitation.
To determine if the ubiquitin-proteasome pathway was involved in Atoh1 degradation, HEK cells were transfected with FLAG-Atoh1 (1 μg/ml) using Lipofectamine 2000 (Invitrogen) for […] and either DMSO or MG132 (10 μM) for […]. Transfected cells were lysed in Pierce IP Lysis Buffer (Thermo) containing 1× complete protease inhibitors and 1×PhosSTOP phosphatase inhibitors (Roche). […]

[4] = tested on: Atoh1; experiment: Cycloheximide chase of Atoh1 with proteasome inhibitor or Huwe1 shRNA in FLAG-HA-Atoh1 293T cells; details: cycloheximide 100 ug/ml plus MG132 10 uM
Method: as §1, with “(E).” for “(E). Atoh1 is polyubiquitylated and degraded by the ubiquitin-proteasome pathway. FLAG-HA-Atoh1 293T cells were treated with either DMSO or MG132 (10 uM) for 6 hours. Lysates were immunoprecipitated with anti-FLAG antibody and subjected to immunoblotting with a ubiquitin antibody. FLAG was used to assess immunoprecipitation.”
FIGS. 9A-D. Huwe1 plasmid increased and Huwe1 siRNA inhibited degradation of Atoh1. […] Quantification of Atoh1, Huwe1 and a loading control (HSC70) were performed by Western blotting and densitometry. […] Atoh1 (FLAG) and Huwe1 were analyzed by Western blotting and densitometry normalized to loading controls in three experiments. […]
HEK cells were transfected with either FLAG-Atoh1 (wild-type), or indicated mutant FLAG-Atoh1 plasmids (1 μg/ml) using Lipofectamine 2000 (3 μl per 1 μg of cDNA, Invitrogen). […] Protein bands were quantified by densitometry. The half-lives of indicated proteins were calculated using GraphPad Prism 6 software and a one-phase exponential-decay model.

[5] = tested on: FLAG-HA-Atoh1 293T cells; experiment: Cycloheximide chase, half-life of Atoh1 by Western blotting and densitometry
Method: FIGS. 1A-B. Atoh1 is a short-lived protein. (A) FLAG-HA-Atoh1 293T cells were treated with cycloheximide (100 ug/ml) and harvested at the indicated times. Lysates were processed for Western blotting with FLAG antibody (Atoh1) or β-actin antibody (loading control). Labels indicate the time of chase. (B) Protein half-lives based on densitometry. The ratio of Atoh1 to β-actin was plotted after normalizing to the initial ratio set to 100. Error bars indicate SEM.
HEK cells were transfected with either FLAG-Atoh1 (wild-type), or indicated mutant FLAG-Atoh1 plasmids (1 μg/ml) using Lipofectamine 2000 (3 μl per 1 μg of cDNA, Invitrogen). Forty-eight hours after transfection, 100 μg/ml cycloheximide (Sigma) was added to block protein synthesis. Cells were harvested at 0, 30, 60, 120, and 240 minutes. Equal amounts of protein from each treatment were taken for Western blotting. Protein bands were quantified by densitometry. The half-lives of indicated proteins were calculated using GraphPad Prism 6 software and a one-phase exponential-decay model.
To determine the half-life of Atoh1, we used cycloheximide to prevent new protein synthesis and followed the time course of disappearance of previously synthesized Atoh1 by Western blotting during a chase period. We transfected 293T cells with FLAG-HA-Atoh1 and treated with cycloheximide at 48 hours after transfection.

Molecule | Atoh1 level in organ of Corti [1] | level of Atoh1 protein ([2]; FLAG-HA-Atoh1 293T cells, reprobed blot and input protein) | density of high molecular weight poly-ubiquitin forms of Atoh1 ([2]; FLAG-HA-Atoh1 cells, vs DMSO) | level of Atoh1 [3] | half-life of Atoh1 [4] | turnover rate of Atoh1 [5]
CC(C)C[C@@H](C=O)NC(=O)[C@H](CC(C)C)NC(=O)[C@H](CC(C)C)NC(=O)OCc1ccccc1 [MG132] (Cbz-Leu-Leu-Leu-aldehyde) | increased; also recorded: higher | increased the level of protein | increased the density | significantly increased; also recorded: stabilized Atoh1 expression | extended the half-life | 
Atoh1: wild-type Atoh1 protein, FLAG- or FLAG-HA-tagged, expressed in HEK/293T cells (protein, left off: large carriers, wild-type Atoh1 protein, FLAG- or FLAG-HA-tagged, expressed in HEK/293T cells) MSRLLHAEEWAEVKELGDHHRQPQPHHLPQPPPPPQPPATLQAREHPVYPPELSLLDSTDPRAWLAPTLQGICTARAAQYLLHSPELGASEAAAPRDEVDGRGELVRRSSGGASSSKSPGPVKVREQLCKLKGGVVVDELGCSRQRAPSSKQVNGVQKQRRLAANARERRRMHGLNHAFDQLRNVIPSFNNDKKLSKYETLQMAQIYINALSELLQTPSGGEQPPPPPASCKSDHHHLRTAASYEGGAGNATAAGAQQASGGSQRPTPPGSCRTRFSAPASAGGYSVQLDALHFSTFEDSALTAMMAQKNLSPSLPGSILQPVQEENSKTSPRSHRSDGEFSPHSHYSDSDEAS |  |  |  |  |  | less than 1 hour
